{"source": "patent US10160726B2", "about": "“Quinolone derivatives as antibacterials” (priority 2014, dated 2018)", "key": {"[1]": {"tested_on": "E. coli ATCC 25922 (NB27001)", "assay": "MIC, broth microdilution (CLSI)", "type": "cell-based", "settings": "Escherichia coli, ATCC25922; E. coli ATCC 25922; 35° C., 20 hours; read-out: Antibacterial activity (MIC) NB27001"}, "[2]": {"tested_on": "E. coli NB27177 (efflux deficient CGSC 11430, ΔtolC732::kan)", "assay": "microbe, parasite or virus in culture", "type": "cell-based", "settings": "Escherichia coli, 20 h, read-out: Antibacterial activity (MIC) NB27177"}, "[3]": {"tested_on": "S. aureus ATCC 29213 (NB01001)", "assay": "MIC, broth microdilution (CLSI)", "type": "cell-based", "settings": "Staphylococcus aureus, ATCC29213; S. aureus ATCC 29213; 35° C., 20 hours; read-out: Antibacterial activity (MIC) NB01001"}, "[4]": {"molecular_target": "E. coli DNA gyrase (GyrA-B) (Escherichia coli, UniProt P0AES4)", "sequence (P0AES4 whole entry)": "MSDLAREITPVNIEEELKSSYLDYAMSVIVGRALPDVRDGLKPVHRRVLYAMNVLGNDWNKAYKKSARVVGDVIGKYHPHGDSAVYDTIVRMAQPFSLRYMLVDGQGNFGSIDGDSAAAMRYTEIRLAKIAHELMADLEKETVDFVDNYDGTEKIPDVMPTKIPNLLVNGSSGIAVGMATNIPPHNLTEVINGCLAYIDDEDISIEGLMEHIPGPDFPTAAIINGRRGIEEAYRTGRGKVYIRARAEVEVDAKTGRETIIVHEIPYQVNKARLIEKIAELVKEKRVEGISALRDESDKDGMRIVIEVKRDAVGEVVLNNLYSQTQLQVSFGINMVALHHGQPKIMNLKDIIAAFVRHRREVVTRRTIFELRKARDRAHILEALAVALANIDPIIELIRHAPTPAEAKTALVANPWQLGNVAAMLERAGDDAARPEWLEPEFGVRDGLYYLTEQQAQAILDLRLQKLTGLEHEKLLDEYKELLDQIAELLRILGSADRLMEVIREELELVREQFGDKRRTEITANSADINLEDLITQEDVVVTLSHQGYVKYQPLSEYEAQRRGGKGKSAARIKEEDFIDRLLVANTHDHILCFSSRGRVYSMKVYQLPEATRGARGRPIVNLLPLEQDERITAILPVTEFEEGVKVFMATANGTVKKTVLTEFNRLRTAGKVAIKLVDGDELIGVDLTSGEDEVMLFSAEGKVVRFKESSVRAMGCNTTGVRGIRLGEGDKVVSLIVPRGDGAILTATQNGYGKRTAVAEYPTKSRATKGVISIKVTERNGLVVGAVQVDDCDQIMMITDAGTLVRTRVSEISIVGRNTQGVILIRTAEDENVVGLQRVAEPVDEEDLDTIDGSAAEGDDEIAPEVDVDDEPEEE", "assay": "Supercoiling assay of E. coli gyrase", "type": "biochemical", "settings": "supercoiling activity of E. coli gyrase (GyrA-B); read-out: GyrA-B IC50 (Enzyme)", "method": "Method 1: Supercoiling Assay of E. Coli Gyrase\nEnzymatic activity of E. coli DNA gyrase reconstituted from its purified subunits was assessed by monitoring the introduction of supercoils into the relaxed plasmid pHOT-1 (TopoGEN, TG2035-3). To form the functional gyrase A2B2 heterotetrameric enzyme, equal molar concentrations of the GyrA and GyrB subunits were combined at high protein concentration (500 nM) and incubated on ice for 1 hour prior to assay start in reaction buffer without ATP or the pHOT-1 plasmid. The reaction mixture (25 μl) contained 10 nM enzyme, 10 ng/μl pHOT-1, 1 mM ATP, 35 mM Tris-HCl pH 7.5, 24 mM KCl, 4 mM MgCl2, 2 mM DTT, 1.8 mM spermidine, 6.5% glycerol, and 100 μg/ml bovine serum albumin. The reaction was carried out at 37° C. for 90 minutes and terminated by the addition of 2.5 μl of 10× stop solution (0.9% SDS, 50% glycerol, 0.05% bromophenol blue). […] Gels were stained with ethidium bromide (0.5 μg/ml) for 30 minutes and destained in water for 20 minutes. All gels were analyzed using the BIO-RAD ChemiDocTm XRS+ with Image Lab 3.0 software. The 50% inhibition concentration (IC50) was determined as being the compound concentration at which the supercoiled band was reduced by 50% from the DMSO drug free control (Microsoft Excel 2010 IDBS XLfit, GraftPad Prism 6)."}, "[5]": {"tested_on": "P. aeruginosa NB52023-CDK0006 (gyrA T83I, parC S87L)", "assay": "microbe, parasite or virus in culture", "type": "cell-based", "settings": "Pseudomonas aeruginosa, 20 h, read-out: Antibacterial activity (MIC) NB52023-CDK0006"}, "[6]": {"molecular_target": "E. coli DNA topoisomerase IV (Topo IV, ParC-E) (Escherichia coli, UniProt P0AFI2)", "sequence (P0AFI2 whole entry)": "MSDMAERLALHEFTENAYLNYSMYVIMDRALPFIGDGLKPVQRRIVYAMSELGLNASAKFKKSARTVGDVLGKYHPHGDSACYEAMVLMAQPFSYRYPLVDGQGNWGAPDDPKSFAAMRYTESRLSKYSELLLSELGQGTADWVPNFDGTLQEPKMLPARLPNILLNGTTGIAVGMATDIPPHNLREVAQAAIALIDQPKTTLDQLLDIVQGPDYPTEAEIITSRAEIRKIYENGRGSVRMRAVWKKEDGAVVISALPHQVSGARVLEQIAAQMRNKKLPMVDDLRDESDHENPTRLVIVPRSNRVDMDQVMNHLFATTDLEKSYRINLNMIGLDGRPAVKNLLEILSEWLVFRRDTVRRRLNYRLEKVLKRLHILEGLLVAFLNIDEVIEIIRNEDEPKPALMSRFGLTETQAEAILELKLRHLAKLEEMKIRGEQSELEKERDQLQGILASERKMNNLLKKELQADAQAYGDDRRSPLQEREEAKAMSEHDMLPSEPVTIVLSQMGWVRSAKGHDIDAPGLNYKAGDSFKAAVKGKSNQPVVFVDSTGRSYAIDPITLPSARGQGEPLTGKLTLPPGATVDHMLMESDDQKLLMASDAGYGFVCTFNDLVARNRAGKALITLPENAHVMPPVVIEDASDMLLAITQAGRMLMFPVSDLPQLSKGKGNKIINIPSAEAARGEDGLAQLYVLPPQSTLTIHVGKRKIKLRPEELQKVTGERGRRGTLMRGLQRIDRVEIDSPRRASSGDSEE", "sequence (P20083 whole entry, further chain)": "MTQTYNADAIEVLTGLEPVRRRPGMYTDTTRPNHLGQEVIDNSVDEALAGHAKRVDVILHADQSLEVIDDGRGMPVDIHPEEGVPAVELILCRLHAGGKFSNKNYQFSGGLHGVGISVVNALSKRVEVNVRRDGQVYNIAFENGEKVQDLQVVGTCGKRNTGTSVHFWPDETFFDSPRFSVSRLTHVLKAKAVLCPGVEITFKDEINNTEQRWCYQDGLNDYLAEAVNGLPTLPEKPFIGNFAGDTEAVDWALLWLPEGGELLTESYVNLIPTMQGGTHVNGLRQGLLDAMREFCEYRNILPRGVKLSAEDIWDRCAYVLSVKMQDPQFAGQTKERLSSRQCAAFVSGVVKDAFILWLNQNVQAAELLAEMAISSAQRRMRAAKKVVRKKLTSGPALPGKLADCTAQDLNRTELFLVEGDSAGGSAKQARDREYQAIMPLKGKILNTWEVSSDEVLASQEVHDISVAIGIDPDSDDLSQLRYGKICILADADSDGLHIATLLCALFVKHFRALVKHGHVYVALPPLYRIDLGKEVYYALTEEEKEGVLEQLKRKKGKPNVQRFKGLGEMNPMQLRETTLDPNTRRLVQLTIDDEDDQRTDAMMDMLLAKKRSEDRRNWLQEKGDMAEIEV", "assay": "Decatenation assay of E. coli Topo IV", "type": "biochemical", "settings": "decatenation activity of E. coli topoIV (ParC-E); read-out: ParC-E IC50 (Enzyme)", "method": "Method 2: Decatenation Assay of E. Coli Topo IV\nEnzymatic activity of the E. coli DNA topoisomerase IV (Topo IV) reconstituted from its purified subunits was monitored by the decatenation of kinetoplast DNA into minicircles (kDNA, TopoGEN, TG2013-3). To form the functional Topo IV C2E2 heterotetrameric enzyme, equal molar concentrations of the ParC and ParE subunits were combined at high protein concentration (500 nM) and incubated on ice for 1 hour prior to assay start in reaction buffer without ATP or the kDNA. […] The reaction was carried out at 37° C. for 2 hours and terminated by the addition of 2.5 μl of 10× stop solution (0.9% SDS, 50% glycerol, 0.05% bromophenol blue). […] Gels were stained with ethidium bromide (0.5 μg/ml) for 30 minutes and distained in water for 20 minutes. All gels were analyzed using the BIO-RAD ChemiDoc™ XRS^+ with Image Lab 3.0 software. The 50% inhibitor concentration (IC50) was determined as being the compound concentration at which the presence of the kDNA minicircles in the gel was reduced by 50% from the DMSO drug free control (Microsoft Excel 2010 IDBS XLfit, Graph Pad Prism 6)."}, "[7]": {"tested_on": "P. aeruginosa NB52023 (efflux deficient K1542, ΔmexX ΔmexB)", "assay": "microbe, parasite or virus in culture", "type": "cell-based", "settings": "Pseudomonas aeruginosa, 20 h, read-out: Antibacterial activity (MIC) NB52023"}, "[8]": {"tested_on": "S. aureus NB01006-AVR005 (gyrA S84L, grlA S80F, grlB E471K)", "assay": "microbe, parasite or virus in culture", "type": "cell-based", "settings": "Staphylococcus aureus, 20 h, read-out: Antibacterial activity (MIC) NB01006-AVR005"}, "[9]": {"tested_on": "P. aeruginosa NB52019 (wild-type PAO1)", "assay": "MIC, broth microdilution (CLSI)", "type": "cell-based", "settings": "Pseudomonas aeruginosa, PAO1, 20 h; read-out: Antibacterial activity (MIC) NB52019"}}}
{"compound": "Cc1c(N2CC[C@@H]([C@H](C)N)C2)c(F)cc2c(C(N)=O)cc(=O)n(C3CC3)c12", "note": "[Example 34, 7-((R)-3-((S)-1-aminoethyl)pyrrolidin-1-yl)-1-cyclopropyl-6-fluoro-8-methyl-2-oxo-1,2-dihydroquinoline-4-carboxamide]", "values": [{"measurement": "MIC", "setting": "[1]", "value": 32, "unit": "µg/mL"}, {"measurement": "MIC", "setting": "[2]", "value": 2, "unit": "µg/mL"}, {"measurement": "MIC", "setting": "[3]", "value": 4, "unit": "µg/mL"}, {"measurement": "IC50", "setting": "[4]", "value": 440, "unit": "nM"}, {"measurement": "MIC", "setting": "[5]", "value": 16, "unit": "µg/mL"}, {"measurement": "IC50", "setting": "[6]", "value": 5.14, "unit": "µM"}, {"measurement": "MIC", "setting": "[7]", "value": 16, "unit": "µg/mL"}, {"measurement": "MIC", "setting": "[8]", "value": 4, "unit": "µg/mL"}, {"measurement": "MIC", "setting": "[9]", "value": "> 32", "unit": "µg/mL"}]}
